As usually defined, the pIC50 is −log10 of the IC50, conventionally taken in molar units. Low readings indicate a high IC50, high ones a low IC50.

pIC50: −log10 of the molar value.

The target of the assay is Tyrosine-protein kinase Tec (Homo sapiens) (UniProt P42680). The assay is described as follows: Inhibition of TEC (unknown origin).
Sequence of Tyrosine-protein kinase Tec (Homo sapiens) (P42680 whole entry, looked up): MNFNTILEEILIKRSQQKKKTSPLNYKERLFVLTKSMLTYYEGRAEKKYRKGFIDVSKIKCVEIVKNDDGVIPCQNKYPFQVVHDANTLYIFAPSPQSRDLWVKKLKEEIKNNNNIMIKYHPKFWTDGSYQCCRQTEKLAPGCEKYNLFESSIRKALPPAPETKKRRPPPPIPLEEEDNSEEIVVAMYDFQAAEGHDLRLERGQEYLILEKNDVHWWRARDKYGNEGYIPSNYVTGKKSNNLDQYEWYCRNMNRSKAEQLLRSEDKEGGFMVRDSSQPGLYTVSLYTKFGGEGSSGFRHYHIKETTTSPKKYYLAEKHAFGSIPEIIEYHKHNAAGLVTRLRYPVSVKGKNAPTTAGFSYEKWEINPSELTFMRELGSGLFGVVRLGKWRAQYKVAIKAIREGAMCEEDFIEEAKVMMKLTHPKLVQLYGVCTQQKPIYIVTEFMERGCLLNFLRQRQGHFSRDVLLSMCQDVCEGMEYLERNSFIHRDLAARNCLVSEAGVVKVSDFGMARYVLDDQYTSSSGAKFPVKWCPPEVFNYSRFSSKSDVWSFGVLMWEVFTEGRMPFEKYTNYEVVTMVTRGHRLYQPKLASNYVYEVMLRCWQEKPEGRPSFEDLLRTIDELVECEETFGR

For `N#CN1CCC[C@@H](n2nc(-c3ccc(Oc4ccc(F)cc4F)cc3)c(C(N)=O)c2N)C1`, the negative logarithm of the IC50 (pIC50) is 8.92.
